The record followed here is ChEMBL document CHEMBL1130684, “Potent, non-thiol inhibitors of farnesyltransferase” (Bioorg Med Chem Lett, 1998).

Molecules are shown by their SMILES. A value given as a limit tells only on which side of the number the result lay.

The first test deals with T1, Protein farnesyltransferase (Homo sapiens, UniProt P49354+P49356). As to the kind of experiment: Inhibition of FTase-catalyzed incorporation of [3H]- FPP radioligand into recombinant Ha-Ras by 50% at an enzyme concentration of 1 nM. The class given is protein-complex assay.
Consider `CCC(C)[C@@H](CN(CC(=O)N[C@@H](CCSC)C(=O)O)Cc1cccc2ccccc12)NC(=O)CS(=O)(=O)Cc1ccccc1` (some centres not stated), for which the IC50 (as a rule, the point on the concentration scale where inhibition reaches its midpoint) stood at 310 nM. Still for that read-out and setting: in the case of `CCC(C)[C@@H](CN(CC(=O)N[C@@H](CCSC)C(=O)O)Cc1cccc2ccccc12)NC(=O)CSc1ccncc1` (some centres not stated) it was 17 nM; in that of `CCC(C)[C@@H](CN(CC(=O)N[C@@H](CCSC)C(=O)O)Cc1ccccc1)NC(=O)CSc1nnc(N)s1` (some centres not stated), above 10000 nM; in that of `CCC(C)[C@@H](CN(CC(=O)N[C@@H](CCSC)C(=O)O)Cc1cccc2ccccc12)NC(=O)CN(Cc1ccccc1)C(=O)OC(C)(C)C` (some centres not stated), 260 nM.

`CCC(C)[C@@H](CN(CC(=O)N[C@@H](CCSC)C(=O)O)Cc1ccccc1)NC(=O)CSc1nc2ccccc2[nH]1` (some centres not stated): the IC50 is above 10000 nM.

On to `CCC(C)[C@@H](CN(CC(=O)N[C@@H](CCSC)C(=O)O)Cc1cccc2ccccc12)NC(=O)CSCc1ccncc1` (some centres not stated), for which the 50% inhibitory concentration (IC50) was found to be 230 nM. Regarding `CCC(C)[C@@H](CN(CC(=O)N[C@@H](CCSC)C(=O)O)Cc1cccc2ccccc12)NC(=O)CNCc1ccccc1` (some centres not stated), the IC50 amounted to 190 nM. On the same count and under the same terms, the figure for `CCC(C)[C@@H](CN(CC(=O)N[C@@H](CCSC)C(=O)O)Cc1ccccc1)NC(=O)CSc1nc[nH]n1` (some centres not stated) is above 10000 nM. Same read-out and setting: in the case of `CCC(C)[C@@H](CN(CC(=O)N[C@@H](CCSC)C(=O)O)Cc1cccc2ccccc12)NC(=O)CN(Cc1ccccc1)C(C)=O` (some centres not stated) it was 70 nM. The same measure, in the same setting: in the case of `CCC(C)[C@@H](CN(CC(=O)N[C@@H](CCSC)C(=O)O)Cc1cccc2ccccc12)NC(=O)CSCc1ccc(OC)cc1` (some centres not stated) it was 17 nM; in that of `CCC(C)[C@@H](CN(CC(=O)N[C@@H](CCSC)C(=O)O)Cc1cccc2ccccc12)NC(=O)C[S+]([O-])Cc1ccccc1` (some centres not stated), 160 nM; in that of `CCC(C)[C@@H](CN(CC(=O)N[C@@H](CCSC)C(=O)O)Cc1cccc2ccccc12)NC(=O)CSCCc1ccccc1` (some centres not stated), 120 nM. Take `CCC(C)[C@@H](CN(CC(=O)N[C@@H](CCSC)C(=O)O)Cc1cccc2ccccc12)NC(=O)CCCCc1ccccc1` (some centres not stated): the IC50 was found to be 230 nM. Same read-out and setting: the figure for `CCC(C)[C@@H](CN(CC(=O)N[C@@H](CCSC)C(=O)O)Cc1cccc2ccccc12)NC(=O)CSc1ccccc1` (some centres not stated) is 51 nM.

`CCC(C)[C@@H](CN(CC(=O)N[C@@H](CCSC)C(=O)O)Cc1cccc2ccccc12)NC(=O)CSCc1ccccc1[N+](=O)[O-]` (some centres not stated): the IC50 was 86 nM. Same read-out and setting: the figure for `CCC(C)[C@@H](CN(CC(=O)N[C@@H](CCSC)C(=O)O)Cc1cccc2ccccc12)NC(=O)CSCc1ccccc1` (some centres not stated) is 36 nM. On the same count and under the same terms, in the case of `CCC(C)[C@@H](CN(CC(=O)N[C@@H](CCSC)C(=O)O)Cc1cccc2ccccc12)NC(=O)CSCc1ccc(C#N)cc1` (some centres not stated) it was 5.4 nM.

Regarding `CCC(C)[C@@H](CN(CC(=O)N[C@@H](CCSC)C(=O)O)Cc1cccc2ccccc12)NC(=O)CSCc1cccc([N+](=O)[O-])c1` (some centres not stated), the IC50 worked out at 23 nM.

On to `CCC(C)[C@@H](CN(CC(=O)N[C@@H](CCSC)C(=O)O)Cc1cccc2ccccc12)NC(=O)COCc1ccccc1` (some centres not stated), for which the IC50 stood at 230 nM. Still for that read-out and setting: in the case of `CCC(C)[C@@H](CN(CC(=O)N[C@@H](CCSC)C(=O)O)Cc1cccc2ccccc12)NC(=O)CSCc1ccc(-c2ccccc2)cc1` (some centres not stated) it was 29 nM. As for `CCC(C)[C@@H](CN(CC(=O)N[C@@H](CCSC)C(=O)O)Cc1cccc2ccccc12)NC(=O)CCCc1ccc([N+](=O)[O-])cc1` (some centres not stated), the IC50 came to 19 nM.

As for `CCC(C)[C@@H](CN(CC(=O)N[C@@H](CCSC)C(=O)O)Cc1cccc2ccccc12)NC(=O)CSCc1ccc(C)cc1` (some centres not stated), the IC50 was found to be 14 nM. Still for that read-out and setting: in the case of `CCC(C)[C@@H](CN(CC(=O)N[C@@H](CCSC)C(=O)O)Cc1cccc2ccccc12)NC(=O)CSCc1ccc([N+](=O)[O-])cc1` (some centres not stated) it was 6.2 nM; in that of `CCC(C)[C@@H](CN(CC(=O)N[C@@H](CCSC)C(=O)O)Cc1cccc2ccccc12)NC(=O)CSCc1ccc(S(C)(=O)=O)cc1` (some centres not stated), 16 nM. Consider `CCC(C)[C@@H](CN(CC(=O)N[C@@H](CCSC)C(=O)O)Cc1cccc2ccccc12)NC(=O)CSCc1ccc(C(F)(F)F)cc1` (some centres not stated), for which the IC50 worked out at 37 nM. `CCC(C)[C@@H](CN(CC(=O)N[C@@H](CCSC)C(=O)O)Cc1cccc2ccccc12)NCc1cnc[nH]1` (some centres not stated): the IC50 worked out at 31 nM.

For the next test, the target named is T1, Protein farnesyltransferase. Nature of the test: Inhibition of [3H]- FPP incorporation into recombinant Ha-Ras by farnesyl transferase at 10 pM. It is filed as protein-complex assay.
As for `CCC(C)[C@@H](CN(CC(=O)N[C@@H](CCSC)C(=O)O)Cc1cccc2ccccc12)NC[C@@H](N)CS` (some centres not stated), the concentration for half-maximal inhibition (IC50) turned out to be 0.123 nM.
